According to patent US6737383B1, “Herbicidal oxadiazolidines” (priority 1999, dated 2004):

What was measured:
smallflower flatsedge = assay: Test B flood test smallflower flatsedge; format: in vivo, Cyperus difformis
In short: (§1)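 Plants were grown to the 2-leaf stage before treatment with test chemical, then held in a greenhouse for twelve to sixteen days. Injury was visually rated against untreated controls on a 0–10 scale, where 0 is no effect and 10 is complete control.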

rape = assay: Test B pre/postemergence rape; format: in vivo, Brassica napus
In short: (§2)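 Test chemicals in a non-phytotoxic solvent mixture with surfactant were sprayed preemergence onto planted seeds and postemergence onto plants 2 to 18 cm tall (1- to 4-leaf stage). After twelve to sixteen days in a greenhouse, injury was visually rated against untreated controls from 0 (no effect) to 10 (complete control).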

wild oat = assay: Test B pre/postemergence wild oat; format: in vivo, Avena fatua
In short: as §2

wheat = assay: Test B pre/postemergence wheat; format: in vivo, Triticum aestivum
In short: as §2

giant foxtail = assay: Test B pre/postemergence giant foxtail; format: in vivo, Setaria faberii
In short: as §2

purple nutsedge = assay: Test B pre/postemergence purple nutsedge; format: in vivo, Cyperus rotundus
In short: as §2

corn = assay: Test B pre/postemergence corn; format: in vivo, Zea mays
In short: as §2

soybean = assay: Test B pre/postemergence soybean; format: in vivo, Glycine max
In short: as §2

blackgrass = assay: Test B pre/postemergence blackgrass; format: in vivo, Alopecurus myosuroides
In short: as §2

sugar beet = assay: Test B pre/postemergence sugar beet; format: in vivo, Beta vulgaris
In short: as §2

crabgrass = assay: Test B pre/postemergence crabgrass; format: in vivo, Digitaria sanguinalis
In short: as §2

duck salad = assay: Test B flood test duck salad; format: in vivo, Heteranthera limosa
In short: as §1

morningglory = assay: Test B pre/postemergence morningglory; format: in vivo, Ipomoea hederacea
In short: as §2

surinam grass = assay: Test B pre/postemergence surinam grass; format: in vivo, Brachiaria decumbens
In short: as §2

velvetleaf = assay: Test B pre/postemergence velvetleaf; format: in vivo, Abutilon theophrasti
In short: as §2

cocklebur = assay: Test B pre/postemergence cocklebur; format: in vivo, Xanthium strumarium
In short: as §2

[1] = Postemergence, Rate 62 g/ha, scale 0 to 10, 0 is no effect, 10 is complete control
[2] = Rate 125 g/ha, Postemergence section (flood test species), scale 0 to 10, 0 no effect, 10 complete control
[3] = flood test, listed under Postemergence, Rate 250 g/ha, scale 0 to 10, 0 no effect, 10 complete control
[4] = Postemergence, Rate 250 g/ha, scale 0 to 10, 0 no effect, 10 complete control
[5] = Preemergence, Rate 62 g/ha, scale 0 to 10, 0 is no effect, 10 is complete control
[6] = Preemergence, Rate 125 g/ha, scale 0 to 10 (0 no effect, 10 complete control)
[7] = Preemergence, Rate 250 g/ha, scale of 0 to 10 where 0 is no effect and 10 is complete control
[8] = Preemergence, Rate 500 g/ha, scale 0 (no effect) to 10 (complete control)
[9] = Rate 125 g/ha, Postemergence, scale 0 to 10, 0 no effect, 10 complete control
[10] = Rate 500 g/ha, Postemergence, 0 to 10 scale (0 no effect, 10 complete control)

CC(C)N(C(=O)n1oc(=O)n(-c2ccc(Cl)cc2C(F)(F)F)c1=O)c1ccc(F)cc1 [Compound 20]
S. Flatsedge plant response rating (smallflower flatsedge; [1]): 0
S. Flatsedge plant response rating (smallflower flatsedge; [2]): 0
S. Flatsedge plant response rating (smallflower flatsedge; [3]): 0
Rape plant response rating (rape; [1]): 0
Rape plant response rating (rape; [4]): 0
Plant response rating, Rape (rape; [5]): 0
Plant response rating, Rape (rape; [6]): 0
Plant response rating, Rape (rape; [7]): 0
Rape plant response rating (rape; [8]): 0
Rape plant response rating (rape; [9]): 0
Rape plant response rating (rape; [10]): 0
Wild oats plant response rating (wild oat; [1]): 0
Wild oats plant response rating (wild oat; [4]): 0
Plant response rating, Wild oats (wild oat; [6]): 0
Plant response rating, Wild oats (wild oat; [7]): 0
Wild oats plant response rating (wild oat; [8]): 0
Wild oats plant response rating (wild oat; [9]): 0
Wheat plant response rating (wheat; [1]): 0
Wheat plant response rating (wheat; [4]): 0
Plant response rating, Wheat (wheat; [5]): 0
Plant response rating, Wheat (wheat; [6]): 0
Plant response rating, Wheat (wheat; [7]): 0
Wheat plant response rating (wheat; [8]): 0
Wheat plant response rating (wheat; [9]): 0
Giant foxtail plant response rating (giant foxtail; [1]): 0
Giant foxtail plant response rating (giant foxtail; [4]): 1
Plant response rating, Giant foxtail (giant foxtail; [5]): 3
Plant response rating, Giant foxtail (giant foxtail; [6]): 5
Plant response rating, Giant foxtail (giant foxtail; [7]): 7
Giant foxtail plant response rating (giant foxtail; [8]): 9
Giant foxtail plant response rating (giant foxtail; [9]): 0
Giant foxtail plant response rating (giant foxtail; [10]): 1
Nutsedge plant response rating (purple nutsedge; [1]): 0
Nutsedge plant response rating (purple nutsedge; [4]): 0
Plant response rating, Nutsedge (purple nutsedge; [5]): 0
Plant response rating, Nutsedge (purple nutsedge; [6]): 0
Plant response rating, Nutsedge (purple nutsedge; [7]): 0
Nutsedge plant response rating (purple nutsedge; [8]): 0
Nutsedge plant response rating (purple nutsedge; [9]): 0
Nutsedge plant response rating (purple nutsedge; [10]): 0
Corn plant response rating (corn; [1]): 0
Corn plant response rating (corn; [4]): 0
Plant response rating, Corn (corn; [5]): 0
Plant response rating, Corn (corn; [6]): 0
Plant response rating, Corn (corn; [7]): 0
Corn plant response rating (corn; [8]): 0
Corn plant response rating (corn; [9]): 0
Corn plant response rating (corn; [10]): 0
Soybean plant response rating (soybean; [1]): 3
Soybean plant response rating (soybean; [4]): 3
Plant response rating, Soybean (soybean; [5]): 0
Plant response rating, Soybean (soybean; [6]): 0
Plant response rating, Soybean (soybean; [7]): 0
Soybean plant response rating (soybean; [8]): 0
Soybean plant response rating (soybean; [9]): 3
Blackgrass plant response rating (blackgrass; [1]): 0
Blackgrass plant response rating (blackgrass; [4]): 0
Plant response rating, Blackgrass (blackgrass; [5]): 0
Plant response rating, Blackgrass (blackgrass; [6]): 1
Plant response rating, Blackgrass (blackgrass; [7]): 1
Blackgrass plant response rating (blackgrass; [8]): 5
Blackgrass plant response rating (blackgrass; [9]): 0
Blackgrass plant response rating (blackgrass; [10]): 2
Sugarbeets plant response rating (sugar beet; [1]): 0
Plant response rating, Sugarbeets (sugar beet; [5]): 0
Plant response rating, Sugarbeets (sugar beet; [6]): 0
Plant response rating, Sugarbeets (sugar beet; [7]): 2
Sugarbeets plant response rating (sugar beet; [8]): 7
Sugarbeets plant response rating (sugar beet; [9]): 0
Crabgrass plant response rating (crabgrass; [1]): 0
Crabgrass plant response rating (crabgrass; [4]): 3
Plant response rating, Crabgrass (crabgrass; [5]): 1
Plant response rating, Crabgrass (crabgrass; [6]): 2
Plant response rating, Crabgrass (crabgrass; [7]): 6
Crabgrass plant response rating (crabgrass; [8]): 7
Crabgrass plant response rating (crabgrass; [9]): 0
Crabgrass plant response rating (crabgrass; [10]): 7
Ducksalad plant response rating (duck salad; [1]): 0
Ducksalad plant response rating (duck salad; [2]): 0
Ducksalad plant response rating (duck salad; Rate 500 g/ha, Postemergence section of Table B, 0 to 10 scale (0 no effect, 10 complete control)): 0
Ducksalad plant response rating (duck salad; [3]): 0
Morningglory plant response rating (morningglory; [1]): 4
Morningglory plant response rating (morningglory; [4]): 7
Plant response rating, Morningglory (morningglory; [5]): 0
Plant response rating, Morningglory (morningglory; [6]): 0
Plant response rating, Morningglory (morningglory; [7]): 0
Morningglory plant response rating (morningglory; [8]): 0
Morningglory plant response rating (morningglory; [9]): 7
Morningglory plant response rating (morningglory; [10]): 8
B. signalgrass plant response rating (surinam grass; [1]): 0
B. signalgrass plant response rating (surinam grass; [4]): 0
Plant response rating, B. signalgrass (surinam grass; [5]): 0
Plant response rating, B. signalgrass (surinam grass; [6]): 0
Plant response rating, B. signalgrass (surinam grass; [7]): 0
B. signalgrass plant response rating (surinam grass; [8]): 0
B. signalgrass plant response rating (surinam grass; [9]): 0
B. signalgrass plant response rating (surinam grass; [10]): 0
Velvetleaf plant response rating (velvetleaf; [1]): 0
Velvetleaf plant response rating (velvetleaf; [4]): 0
Plant response rating, Velvetleaf (velvetleaf; [5]): 0
Plant response rating, Velvetleaf (velvetleaf; [6]): 0
Plant response rating, Velvetleaf (velvetleaf; [7]): 0
Velvetleaf plant response rating (velvetleaf; [8]): 0
Velvetleaf plant response rating (velvetleaf; [9]): 0
Cocklebur plant response rating (cocklebur; [1]): 0
Cocklebur plant response rating (cocklebur; [4]): 0
Plant response rating, Cocklebur (cocklebur; [5]): 0
Plant response rating, Cocklebur (cocklebur; [6]): 0
Plant response rating, Cocklebur (cocklebur; [7]): 0
Cocklebur plant response rating (cocklebur; [8]): 0
Cocklebur plant response rating (cocklebur; [9]): 0
Cocklebur plant response rating (cocklebur; [10]): 0
